From article PMC10253357, “Acceptors and Effectors Alter Substrate Inhibition Kinetics of a Plant Glucosyltransferase NbUGT72AY1 and Its Mutants” (International Journal of Molecular Sciences, 2023)
Each block holds one molecule with its values, some of them ahead of it.

Legend:
[1] = target: T1, NbUGT72AY1 (Nicotiana benthamiana, UniProt A0A8K1ZRH3); experiment: UDP-Glo glucosyltransferase assay, UDP release; assay type: biochemical; details: UDP-glucose donor, Tris pH 7.5, 40 °C
T1 construct: pGEX-4T-1 vector (GST fusion expected), expressed in E. coli BL21(DE3) pLysS
T1 sequence (A0A8K1ZRH3 1-477): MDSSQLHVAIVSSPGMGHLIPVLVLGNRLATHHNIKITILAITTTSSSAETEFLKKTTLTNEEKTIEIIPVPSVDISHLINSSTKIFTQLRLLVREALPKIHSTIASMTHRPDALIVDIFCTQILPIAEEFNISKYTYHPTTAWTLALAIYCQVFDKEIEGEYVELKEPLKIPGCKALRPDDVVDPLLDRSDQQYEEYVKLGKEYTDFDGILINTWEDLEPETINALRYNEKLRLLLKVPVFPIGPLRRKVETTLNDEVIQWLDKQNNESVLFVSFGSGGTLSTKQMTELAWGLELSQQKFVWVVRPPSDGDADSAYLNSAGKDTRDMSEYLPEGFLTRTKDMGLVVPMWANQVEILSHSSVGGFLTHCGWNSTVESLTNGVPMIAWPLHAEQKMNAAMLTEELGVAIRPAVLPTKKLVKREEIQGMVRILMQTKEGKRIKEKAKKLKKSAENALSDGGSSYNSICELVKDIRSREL

[2] = target: T1, NbUGT72AY1; experiment: UDP-Glo glucosyltransferase assay, UDP release; assay type: biochemical; details: UDP-glucose donor; Tris pH 7.5, 40 °C; fit with substrate inhibition and Hill coefficients
[3] = target: T1, NbUGT72AY1; experiment: UDP-Glo assay with vanillin, effector added; assay type: biochemical; details: vanillin acceptor, UDP-glucose donor, Tris pH 7.5, 40 °C
[4] = target: T2, chimera A; experiment: UDP-Glo glucosyltransferase assay, UDP release; assay type: biochemical, Nicotiana benthamiana; details: substrate inhibition constant, uncompetitive model with Hill coefficients; UDP-glucose donor; Tris pH 7.5, 40 °C
T2 construct: gene UGT72AY1; NbUGT72AY1 (MT945401) with a segment of StUGT72AY2 from Solanum tuberosum; pGEX-4T-1, E. coli

[5] = substrate: O=c1c(O)c(-c2ccc(O)cc2)oc2cc(O)cc(O)c12; experiment: UDP-Glo glucosyltransferase assay, UDP release; assay type: biochemical, Nicotiana benthamiana; details: UDP-glucose donor, Tris pH 7.5, 40 °C, two products (3-O- and 7-O-glucoside)
[6] = substrate: COc1ccccc1O; experiment: UDP-Glo glucosyltransferase assay, UDP release; assay type: biochemical, Nicotiana benthamiana; details: UDP-glucose donor, Tris pH 7.5, 40 °C, fit with substrate inhibition and Hill coefficients
[7] = substrate: Oc1ccc(O)cc1; experiment: UDP-Glo glucosyltransferase assay, UDP release; assay type: biochemical, Nicotiana benthamiana; details: UDP-glucose donor, Tris pH 7.5, 40 °C, Michaelis-Menten, no substrate inhibition
[8] = substrate inhibition constant, uncompetitive model with Hill coefficients
[9] = substrate inhibition constant, complete (Vi = 0), uncompetitive model with Hill coefficients

Molecule: Cc1ccccc1O [o-cresol]
- Ki [1, 9]: 1368 ± 165 µM
- Km [2]: 17 ± 9 µM

Molecule: CCCCCCCC/C=C\CCCCCCCC(=O)O [oleic acid]
- UDP-Glo assay with vanillin, effector added ([3]; effector at 20 and 100 µM): increased catalytic activity of NbUGT72AY1, noted after addition of stearic and oleic acid

Molecule: COc1cc(/C=C/C=O)cc(OC)c1O [sinapaldehyde]
- Ki [4]: 1437 ± 138 µM
- Ki [1, 9]: 1398 ± 283 µM

Molecule: CCCCCCCCCCCCCCCCCC(=O)O [stearic acid]
- UDP-Glo assay with vanillin, effector added ([3]; effector at 20 and 100 µM): Saturated stearic acid promoted the glycosylation activity of NbUGT72AY1 with vanillin

Molecule: CC1=CCCC(C)(C)C1/C=C/C(C)O (stereo not drawn) [α-ionol]
- UDP-Glo assay with vanillin, effector added ([3]; effector at 100 and 200 µM): addition of α- and β-ionol to the reaction resulted in a concentration-dependent increase in Ki

Molecule: CC1=C(/C=C/C(C)O)C(C)(C)CCC1 (stereo not drawn) [β-ionol]
- UDP-Glo assay with vanillin, effector added ([3]; effector at 100 and 200 µM): addition of α- and β-ionol to the reaction resulted in a concentration-dependent increase in Ki

B1: NbUGT72AY1 (Nicotiana benthamiana) (protein)
chain: MDSSQLHVAIVSSPGMGHLIPVLVLGNRLATHHNIKITILAITTTSSSAETEFLKKTTLTNEEKTIEIIPVPSVDISHLINSSTKIFTQLRLLVREALPKIHSTIASMTHRPDALIVDIFCTQILPIAEEFNISKYTYHPTTAWTLALAIYCQVFDKEIEGEYVELKEPLKIPGCKALRPDDVVDPLLDRSDQQYEEYVKLGKEYTDFDGILINTWEDLEPETINALRYNEKLRLLLKVPVFPIGPLRRKVETTLNDEVIQWLDKQNNESVLFVSFGSGGTLSTKQMTELAWGLELSQQKFVWVVRPPSDGDADSAYLNSAGKDTRDMSEYLPEGFLTRTKDMGLVVPMWANQVEILSHSSVGGFLTHCGWNSTVESLTNGVPMIAWPLHAEQKMNAAMLTEELGVAIRPAVLPTKKLVKREEIQGMVRILMQTKEGKRIKEKAKKLKKSAENALSDGGSSYNSICELVKDIRSREL
notes: pGEX-4T-1 vector (GST fusion expected), expressed in E. coli BL21(DE3) pLysS
- Km [5]: 15 ± 3 µM
- Km [6]: 179 ± 44 µM
- Km [7]: 331 ± 25 µM

Results, then the molecule that gave them:

- Ki [1, 8]: 345 ± 58 µM
Molecule: CCc1ccc(O)c(OC)c1 [ethylguaiacol]

- Ki [1, 8]: 62 ± 17 µM
Molecule: C=CCc1ccc(O)c(OC)c1 [eugenol]

- Ki [1, 9]: 1022 ± 69 µM
Molecule: COc1ccccc1O [guaiacol]

- Ki ([1]; substrate inhibition constant (partial uncompetitive model with Hill coefficients)): 16 ± 1 µM
Molecule: COc1cc2ccc(=O)oc2cc1O [scopoletin]

- Ki ([1]; substrate inhibition constant, partial uncompetitive model with Hill coefficients (n = 1, x = 2), no effector): 117 ± 24 µM
Molecule: COc1cc(C=O)ccc1O [vanillin]
